Laboratory results: ChEMBL document CHEMBL1136204, “Thymidine and thymidine-5'-O-monophosphate analogues as inhibitors of Mycobacterium tuberculosis thymidylate kinase” (Bioorg Med Chem Lett, 2003)

Tests used:
[1] = target: T1, Thymidylate kinase (Mycobacterium tuberculosis) (UniProt P9WKE1); experiment: (§1) Kinetic parameter Vm of thymidine monophosphate kinase (TMPKmt) in Mycobacterium tuberculosis was determined; format: functional
T1 sequence (whole entry): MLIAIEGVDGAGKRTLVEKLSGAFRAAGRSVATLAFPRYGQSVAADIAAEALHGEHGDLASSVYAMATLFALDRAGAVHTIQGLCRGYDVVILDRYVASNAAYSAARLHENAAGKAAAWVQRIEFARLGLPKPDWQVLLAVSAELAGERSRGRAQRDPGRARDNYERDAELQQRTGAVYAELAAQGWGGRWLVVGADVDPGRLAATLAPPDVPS

[2] = target: T1, Thymidylate kinase (Mycobacterium tuberculosis); experiment: as §1

Compound | Vm [1] | Vm [2]
O=c1[nH]c(=O)n([C@H]2C[C@H](O)[C@@H](COP(=O)(O)O)O2)cc1F | 4.7 µM/min/mg | 
O=c1[nH]c(=O)n([C@H]2C[C@H](O)[C@@H](COP(=O)(O)O)O2)cc1Br | 9.8 µM/min/mg | 
O=c1ccn([C@H]2C[C@H](O)[C@@H](COP(=O)(O)O)O2)c(=O)[nH]1 | 3.5 µM/min/mg | 
Cc1cn([C@H]2C[C@H](O)[C@@H](COP(=O)(O)O)O2)c(=O)[nH]c1=O |  | 10.6 µM/min/mg
O=c1[nH]c(=O)n([C@H]2C[C@H](O)[C@@H](COP(=O)(O)O)O2)cc1I | 7.5 µM/min/mg | 
